ChEMBL document CHEMBL2074070, “Circumvention of breast cancer resistance protein (BCRP)-mediated resistance to camptothecins in vitro using non-substrate drugs or the BCRP inhibitor GF120918” (Clin Cancer Res, 2001)
Each block holds one compound with its values, some of them ahead of it.

Key:
Assay type in all cases: functional, cell-based
[1] = molecular target: T1, Broad substrate specificity ATP-binding cassette transporter ABCG2 (Homo sapiens, UniProt Q9UNQ0); test: TP_TRANSPORTER: increase in intracellular accumulation by GF120918 in T8 cell
T1 sequence (Q9UNQ0 whole entry): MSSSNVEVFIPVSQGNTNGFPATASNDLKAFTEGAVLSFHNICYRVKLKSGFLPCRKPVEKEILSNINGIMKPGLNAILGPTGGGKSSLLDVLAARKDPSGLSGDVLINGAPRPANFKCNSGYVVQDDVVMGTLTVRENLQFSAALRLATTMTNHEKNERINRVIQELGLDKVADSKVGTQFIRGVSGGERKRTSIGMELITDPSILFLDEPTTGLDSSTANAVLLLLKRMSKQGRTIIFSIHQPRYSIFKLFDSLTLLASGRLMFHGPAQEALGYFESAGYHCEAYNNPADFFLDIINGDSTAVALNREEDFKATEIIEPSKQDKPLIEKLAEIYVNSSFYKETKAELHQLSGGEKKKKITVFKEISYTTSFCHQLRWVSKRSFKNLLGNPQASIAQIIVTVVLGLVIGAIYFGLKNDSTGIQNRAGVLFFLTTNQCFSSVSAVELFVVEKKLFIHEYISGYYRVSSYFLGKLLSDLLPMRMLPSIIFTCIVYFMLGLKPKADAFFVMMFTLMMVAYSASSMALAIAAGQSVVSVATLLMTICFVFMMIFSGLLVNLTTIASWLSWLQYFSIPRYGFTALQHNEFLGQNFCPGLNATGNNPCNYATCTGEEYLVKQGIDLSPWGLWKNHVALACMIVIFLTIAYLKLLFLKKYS

[2] = molecular target: T1, Broad substrate specificity ATP-binding cassette transporter ABCG2; test: TP_TRANSPORTER: increase in Topotecan intracellular accumulation (Topotecan: 1.9 uM, GF120918: 2 uM) in T8 cells
[3] = molecular target: T1, Broad substrate specificity ATP-binding cassette transporter ABCG2; test: TP_TRANSPORTER: increase in Topotecan intracellular accumulation (Topotecan: 1.9 uM, GF120918: 2 uM) in MX3 cells
[4] = molecular target: T1, Broad substrate specificity ATP-binding cassette transporter ABCG2; test: TP_TRANSPORTER: increase of cytotoxicity by GF120918 in T8 cells
[5] = molecular target: T1, Broad substrate specificity ATP-binding cassette transporter ABCG2; test: TP_TRANSPORTER: increase of cytotoxicity by GF120918 in MX3 cells

Activity [1]: substrate [+]
SMILES: CC[C@@]1(O)C(=O)OCc2c1cc1n(c2=O)Cc2cc3c(CN(C)C)c(O)ccc3nc2-1 [TOPOTECAN]

Activity [2]: inhibitor [+] | Activity [3]: inhibitor [+]
SMILES: COc1cc2c(cc1OC)CN(CCc1ccc(NC(=O)c3cccc4c(=O)c5cccc(OC)c5[nH]c34)cc1)CC2.Cl [ELACRIDAR HYDROCHLORIDE]

SMILES: CC[C@@]1(O)C(=O)OCc2c1cc1n(c2=O)Cc2c-1nc1cc(F)c(C)c3c1c2[C@@H](N)CC3 [EXATECAN]
Activity [4]: substrate [] | Activity [5]: substrate []
